Data as given in patent publication US8158628B2, “Sulfonylated 1,2,3,4-tetrahydropyrrolo[1,2-a]pyrazine compounds and their use as pharmaceuticals” (Gruenenthal GmbH, priority 2009, dated 2012).

Assays:
B1R of the rat = target: T1, B1R of the rat (Rattus norvegicus, UniProt P97583); test: FLIPR Ca2+ functional assay, B1R antagonism, rat B1R in CHO K1 cells; format: cell-based; conditions: test substance 10 μM; rB1R CHO K1 cells; agonist Des-Arg9 bradykinin at EC80; % of maximum achievable inhibition
T1 construct: expressed in transfected cells; host or cells: CHO K1 cells (Chinese hamster ovary), stably transfected
T1 sequence (P97583 1-337): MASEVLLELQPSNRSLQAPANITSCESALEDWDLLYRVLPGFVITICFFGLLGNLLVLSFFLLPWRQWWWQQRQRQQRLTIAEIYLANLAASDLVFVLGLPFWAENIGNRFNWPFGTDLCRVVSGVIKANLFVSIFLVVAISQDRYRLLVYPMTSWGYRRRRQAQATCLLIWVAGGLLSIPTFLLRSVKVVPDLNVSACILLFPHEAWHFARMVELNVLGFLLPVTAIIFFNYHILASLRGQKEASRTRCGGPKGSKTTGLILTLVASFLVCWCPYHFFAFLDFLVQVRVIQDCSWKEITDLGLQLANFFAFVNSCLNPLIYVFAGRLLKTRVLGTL
Procedure, shortened: (§1)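 IC50 values come from varied compound concentrations applied 10-20 min before an EC80 agonist challenge, with Des-Arg9 bradykinin for rat and Lys-Des-Arg9 bradykinin for human receptor. Ca2+ influx in Fluo-4-loaded CHO K1 transfectants was measured by FLIPR peak fluorescence. Data are % inhibition vs maximum, n=2-3, N>=2.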

human B1R = target: T2, human B1R (Homo sapiens, UniProt P46663); test: FLIPR Ca2+ functional assay, B1R antagonism, human B1R in CHO K1 cells; format: cell-based; conditions: test substance 10 μM; hB1R CHO K1 cells; agonist Lys-Des-Arg9 bradykinin at EC80; % of maximum achievable inhibition
T2 construct: expressed in transfected cells; host or cells: CHO K1 cells (Chinese hamster ovary), stably transfected
T2 sequence (P46663 1-353): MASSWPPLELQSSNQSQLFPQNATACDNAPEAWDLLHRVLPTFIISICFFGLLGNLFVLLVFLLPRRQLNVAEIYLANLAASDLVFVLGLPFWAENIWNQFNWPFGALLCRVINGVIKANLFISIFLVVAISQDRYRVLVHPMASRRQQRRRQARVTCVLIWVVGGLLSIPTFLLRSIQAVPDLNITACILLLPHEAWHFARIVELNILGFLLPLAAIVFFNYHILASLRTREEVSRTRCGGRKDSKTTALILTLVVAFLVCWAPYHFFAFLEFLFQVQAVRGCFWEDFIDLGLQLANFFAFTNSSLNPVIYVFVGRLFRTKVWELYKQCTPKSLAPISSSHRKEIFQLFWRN
Procedure, shortened: as §1

Structure (SMILES)	inhibition at 10 µM (B1R of the rat) [%]	inhibition at 10 µM (human B1R) [%]
COc1cc(C)c(S(=O)(=O)N2CCn3cccc3C2COCC(=O)N2CCC(OCCN3CCCC3)(c3cccnc3)CC2)c(C)c1 (stereo not shown) [Example 24, 2-((2-(4-Methoxy-2,6-dimethylphenylsulfonyl)-1,2,3,4-tetrahydropyrrolo[1,2-a]pyrazin-1-yl)methoxy)-1-(4-(pyridin-3-yl)-4-(2-(pyrrolidin-1-yl)ethoxy)piperidin-1-yl)ethanone]	114	99.9
COc1cc(C)c(S(=O)(=O)N2CCn3cccc3C2COCC(=O)N(C)CCC2CCN(c3ccncc3)CC2)c(C)c1 (stereo not shown) [Example 7]	102	99.9
CN(CCC1CCN(c2ccncc2)CC1)C(=O)COCC1c2cccn2CCN1S(=O)(=O)c1ccccc1C(F)(F)F (stereo not shown) [Example 12, N-Methyl-N-(2-(1-(pyridin-4-yl)piperidin-4-yl)ethyl)-2-((2-(2-(trifluoromethyl)phenylsulfonyl)-1,2,3,4-tetrahydropyrrolo[1,2-a]pyrazin-1-yl)methoxy)acetamide]	99.3	99.5
COc1ccc2cc(S(=O)(=O)N3CCn4cccc4C3CC(=O)NC3CCCc4cc(CNCc5ccccc5)ccc43)ccc2c1 (stereo not shown) [Example 100, N-[6-[(Benzylamino)-methyl]-1,2,3,4-tetrahydro-naphthalen-1-yl]-2-[2-[(6-methoxy-naphthalen-2-yl)sulfonyl]-1,2,3,4-tetrahydro-pyrrolo[1,2-a]pyrazin-1-yl]-acetamide]	103	99.8
CC(C)(C)NCc1ccc2c(c1)CCCC2NC(=O)CC1c2cccn2CCN1S(=O)(=O)c1cccc(C(F)(F)F)c1 (stereo not shown) [Example 82, N-[6-[(tert-Butylamino)-methyl]-1,2,3,4-tetrahydro-naphthalen-1-yl]-2-[2-[[3-(trifluoromethyl)phenyl]sulfonyl]-1,2,3,4-tetrahydro-pyrrolo[1,2-a]pyrazin-1-yl]-acetamide]	101	99.9
COc1cc(C)c(S(=O)(=O)N2CCn3cccc3C2CC(=O)N2CCC3(CCN(C4CC4)C3)C2)c(C)c1 (stereo not shown) [Example 3, 1-(7-Cyclopropyl-2,7-diazaspiro[4.4]nonan-2-yl)-2-(2-(4-methoxy-2,6-dimethylphenylsulfonyl)-1,2,3,4-tetrahydropyrrolo[1,2-a]pyrazin-1-yl)ethanone]	58.8	69.6
O=C(COCC1c2cccn2CCN1S(=O)(=O)c1ccccc1C(F)(F)F)N1CCC2(CC1)CCN(c1ccncc1)C2 (stereo not shown) [Example 21, 1-(2-(Pyridin-4-yl)-2,8-diazaspiro[4.5]decan-8-yl)-2-((2-(2-(trifluoromethyl)phenylsulfonyl)-1,2,3,4-tetrahydropyrrolo[1,2-a]pyrazin-1-yl)methoxy)ethanone]	113	100
COc1ccc2cc(S(=O)(=O)N3CCn4cccc4C3CC(=O)NC3CCc4cc(CN(C)C(C)(C)C)ccc4C3)ccc2c1 (stereo not shown) [Example 97, N-[6-[(tert-Butyl-methyl-amino)-methyl]-1,2,3,4-tetrahydro-naphthalen-2-yl]-2-[2-[(6-methoxy-naphthalen-2-yl)sulfonyl]-1,2,3,4-tetrahydro-pyrrolo[1,2-a]pyrazin-1-yl]-acetamide]	102	99.8
COc1cc(C)c(S(=O)(=O)N2CCn3cccc3C2COCC(=O)N2CCC(Cc3ccncc3)CC2)c(C)c1 (stereo not shown) [Example 35, 2-[[2-[(4-Methoxy-2,6-dimethyl-phenyl)sulfonyl]-1,2,3,4-tetrahydro-pyrrolo[1,2-a]pyrazin-1-yl]-methoxy]-1-[4-(pyridin-4-yl-methyl)-piperidin-1-yl]-ethanone]	101	97.7

The remaining lines, values ahead:

inhibition at 10 µM (B1R of the rat) [%]	inhibition at 10 µM (human B1R) [%]	Structure (SMILES)
99.3	57.9	Cc1ccc(S(=O)(=O)N2CCn3cccc3C2CC(=O)NC2CCc3cc(CN4CCCc5ccccc54)ccc3C2)cc1 (stereo not shown) [Example 79, 2-[2-(p-Tolylsulfonyl)-1,2,3,4-tetrahydro-pyrrolo[1,2-a]pyrazin-1-yl]-N-[6-(1,2,3,4-tetrahydro-quinolin-1-yl-methyl)-1,2,3,4-tetrahydro-naphthalen-2-yl]-acetamide]
51.4	54.6	O=C(CC1c2cccn2CCN1S(=O)(=O)c1cccc(C(F)(F)F)c1)NC1CCCc2cc(CN3CCCc4ccccc43)ccc21 (stereo not shown) [Example 90, N-[6-(1,2,3,4-Tetrahydro-quinolin-1-yl-methyl)-1,2,3,4-tetrahydro-naphthalen-1-yl]-2-[2-[[3-(trifluoromethyl)phenyl]sulfonyl]-1,2,3,4-tetrahydro-pyrrolo[1,2-a]pyrazin-1-yl]-acetamide]
99.5	99.7	Cc1ccc(S(=O)(=O)N2CCn3cccc3C2CC(=O)NC2CCc3cc(CN4CCCCC4)ccc3C2)cc1Cl (stereo not shown) [Example 50, 2-[2-[(3-Chloro-4-methyl-phenyl)sulfonyl]-1,2,3,4-tetrahydro-pyrrolo[1,2-a]pyrazin-1-yl]-N-[6-(piperidin-1-yl-methyl)-1,2,3,4-tetrahydro-naphthalen-2-yl]-acetamide]
101	99.8	Cc1ccc(S(=O)(=O)N2CCn3cccc3C2CC(=O)NC2CCCc3cc(CN4CCCCC4)ccc32)cc1 (stereo not shown) [Example 80, N-[6-(Piperidin-1-yl-methyl)-1,2,3,4-tetrahydro-naphthalen-1-yl]-2-[2-(p-tolylsulfonyl)-1,2,3,4-tetrahydro-pyrrolo[1,2-a]pyrazin-1-yl]-acetamide]
104	99.6	CNCc1ccc2c(c1)CCCC2NC(=O)CC1c2cccn2CCN1S(=O)(=O)c1cccc(C(F)(F)F)c1 (stereo not shown) [Example 135, N-[6-(Methylamino-methyl)-1,2,3,4-tetrahydro-naphthalen-1-yl]-2-[2-[[3-(trifluoromethyl)phenyl]sulfonyl]-1,2,3,4-tetrahydro-pyrrolo[1,2-a]pyrazin-1-yl]-acetamide]
-29.2	99.7	CNCc1ccc2c(c1)CCCC2NC(=O)CC1c2cccn2CCN1S(=O)(=O)c1ccc(C)c(Cl)c1 (stereo not shown) [Example 136, 2-[2-[(3-Chloro-4-methyl-phenyl)sulfonyl]-1,2,3,4-tetrahydro-pyrrolo[1,2-a]pyrazin-1-yl]-N-[6-(methylamino-methyl)-1,2,3,4-tetrahydro-naphthalen-1-yl]-acetamide]
64	50.6	Cc1ccc(S(=O)(=O)N2CCn3cccc3C2CC(=O)N[C@@H]2CCCc3cc(CNCC(F)(F)F)ccc32)cc1 (stereo partly drawn) [Example 45, 2-(2-Tosyl-1,2,3,4-tetrahydropyrrolo[1,2-a]pyrazin-1-yl)-N—((R)-6-((2,2,2-trifluoroethylamino)methyl)-1,2,3,4-tetrahydronaphthalen-1-yl)acetamide]
102	99.8	CCC(C)NCc1ccc2c(c1)CCCC2NC(=O)CC1c2cccn2CCN1S(=O)(=O)c1ccc(C)c(Cl)c1 (stereo not shown) [Example 132, 2-[2-[(3-Chloro-4-methyl-phenyl)sulfonyl]-1,2,3,4-tetrahydro-pyrrolo[1,2-a]pyrazin-1-yl]-N-[6-[(1-methyl-propylamino)-methyl]-1,2,3,4-tetrahydro-naphthalen-1-yl]-acetamide]
98.8	73.6	COc1ccc2cc(S(=O)(=O)N3CCn4cccc4C3CC(=O)NC3CCCc4cc(CN5CCCc6ccccc65)ccc43)ccc2c1 (stereo not shown) [Example 130, 2-[2-[(6-Methoxy-naphthalen-2-yl)sulfonyl]-1,2,3,4-tetrahydro-pyrrolo[1,2-a]pyrazin-1-yl]-N-[6-(1,2,3,4-tetrahydro-quinolin-1-yl-methyl)-1,2,3,4-tetrahydro-naphthalen-1-yl]-acetamide]
102	99	O=C(CC1c2cccn2CCN1S(=O)(=O)c1cccc(C(F)(F)F)c1)NC1CCCc2cc(CN3CCOCC3)ccc21 (stereo not shown) [Example 53, N-[6-(Morpholin-4-yl-methyl)-1,2,3,4-tetrahydro-naphthalen-1-yl]-2-[2-[[3-(trifluoromethyl)phenyl]sulfonyl]-1,2,3,4-tetrahydro-pyrrolo[1,2-a]pyrazin-1-yl]-acetamide]
103	99.5	COc1ccc2cc(S(=O)(=O)N3CCn4cccc4C3CC(=O)N[C@@H]3CCCc4cc(CN5CCCCC5)ccc43)ccc2c1 (stereo partly drawn) [Example 9, 2-(2-(6-Methoxynaphthalen-2-ylsulfonyl)-1,2,3,4-tetrahydropyrrolo[1,2-a]pyrazin-1-yl)-N—((R)-6-(piperidin-1-ylmethyl)-1,2,3,4-tetrahydronaphthalen-1-yl)acetamide]
